Experimental data from patent publication US20150359742A1, “COMPOSITIONS AND METHODS FOR ENHANCING THE TOPICAL APPLICATION OF A BENEFIT AGENT INCLUDING POWDER TO LIQUID PARTICLES AND A SECOND POWDER” (Johnson & Johnson Consumer Inc., priority 2014, published 2015).

Tested on: Pigmented human epidermal equivalents (MelanoDerm™)
Assay: In vitro test for depigmentation activity in pigmented human epidermal equivalents (MelanoDerm, MEL-300-B)
Format: cell-based
Conditions: applied topically daily for 8 days, measured on day 9
Excerpt: Pigmented human epidermal equivalents (MelanoDerm™) from MatTek Corporation (Ashland, Mass.) were used to assess the depigmentation activity of test materials. MelanoDerm™ consists of normal, human-derived epidermal keratinocytes (NHEK) and melanocytes (NHM) which have been cultured to form a multilayered, highly differentiated model of the human epidermis. Specifically, MEL-300-B tissues, each 9 mm in diameter were used in the following tests.
The Example 2 ascorbic acid powder mixture was compared with 1% Ascorbic Acid 2-Glucoside (Hayashibara Co Ltd, Japan) in a solvent of 70% ethyl alcohol and 30% butylene glycol as a benchmark. Test materials were applied topically to the MelanoDerm™ skin model daily and the experiment lasted for 8 days. Measurement was taken on day 9. The macroscopic and microscopic visual tissue darkening end points were measured by taking pictures with a digital camera. The Degree of Lightness for each tissue (L-Value) was measured using a spectrophotometer (Konica Minolta CM-2600d). The ΔL (degree of lightness as compared to control) for each test sample is calculated as per following formula: […]
Degree of skin lightness:
ΔL*=L*-value of treated sample−L*-value of control sample.
ΔMexa Index=Melanin Index of control−Melanin Index of treated sample.

For `O=C1O[C@H]([C@@H](O)CO)C(O)=C1O[C@H]1O[C@H](CO)[C@@H](O)[C@H](O)[C@H]1O` [1% ascorbic acid 2-glucoside in vehicle, Ascorbic Acid 2-Glucoside], the “Δ Mexa Index (Melanin Index of control minus treated sample)” value was 145.67 and the “Δ L-value (degree of skin lightness, treated minus control)” value (spectrophotometer) was 2.34.
